Each structure is given as a SMILES string.

The test system of this assay is bovine brain tubulin. Kind of assay: Microtubule pelleting assay. It counts as biochemical. To be noted: 100 μM compound, microtubules 2 mg/mL, 30 min at 37° C. As to the method:
A microtubule pelleting assay is used to test in vitro the direct effect of the tubulin binding compounds described herein such as the compounds listed in Tables 1, 2, and 3. […] Freshly polymerised/depolymerised bovine brain tubulin is supplemented with 34% Glycerol and 1 mM GTP and adjusted to a concentration of 4 mg/mL. Polymerization into microtubule is achieved by incubating the tubulin at 37° C. for 30 min.
To assess the effect of the compounds tested, a final concentration of 100 μM is added to the warm microtubules diluted at 2 mg/mL and after a 30 min incubation at 37° C., the reaction mixture is added on top of a glycerol cushion. After high speed centrifugation at 80,000 rpm for 15 min, the microtubule pellet fractions are separated from the supernatant fractions and analyzed by SDS-PAGE. In the presence of the 3 MDAs, the tubulin band is observed in the pellet fractions, which indicates the […] effect of these compounds. […] The test compounds generally show destabilizing effect on microtubules.

Take `CC(=O)O[C@H]1C(=O)[C@@]2(C)[C@H]([C@H](OC(=O)c3ccccc3)[C@]3(O)C[C@H](OC(=O)[C@H](O)[C@@H](NC(=O)c4ccccc4)c4ccccc4)C(C)=C1C3(C)C)[C@]1(OC(C)=O)CO[C@@H]1C[C@@H]2O` [taxol]: the “effect on microtubules (tubulin in pellet vs supernatant fractions, SDS-PAGE)” value is “increases the amount of tubulin observed in the pellet fraction”.
